Laboratory results from patent US20240360133A1, “FUSED TRICYCLIC COMPOUND, PREPARATION METHOD THEREFOR AND APPLICATION THEREOF IN MEDICINE” (Jiangsu Hengrui Pharmaceuticals Co., Ltd., priority 2020, published 2024).

The molecules below were run against T1, human TLR7 (Homo sapiens, UniProt Q9NYK1) (assay: Inhibitory effect on human TLR7 activation pathway (HEK-Blue hTLR7 SEAP reporter)). Conditions: HEK-Blue hTLR7 cells, 1 μM resiquimod, 20 h, SEAP OD620.
T1 construct: host or cells: HEK-Blue hTLR7 (HEK293)
T1 sequence (Q9NYK1 27-1049): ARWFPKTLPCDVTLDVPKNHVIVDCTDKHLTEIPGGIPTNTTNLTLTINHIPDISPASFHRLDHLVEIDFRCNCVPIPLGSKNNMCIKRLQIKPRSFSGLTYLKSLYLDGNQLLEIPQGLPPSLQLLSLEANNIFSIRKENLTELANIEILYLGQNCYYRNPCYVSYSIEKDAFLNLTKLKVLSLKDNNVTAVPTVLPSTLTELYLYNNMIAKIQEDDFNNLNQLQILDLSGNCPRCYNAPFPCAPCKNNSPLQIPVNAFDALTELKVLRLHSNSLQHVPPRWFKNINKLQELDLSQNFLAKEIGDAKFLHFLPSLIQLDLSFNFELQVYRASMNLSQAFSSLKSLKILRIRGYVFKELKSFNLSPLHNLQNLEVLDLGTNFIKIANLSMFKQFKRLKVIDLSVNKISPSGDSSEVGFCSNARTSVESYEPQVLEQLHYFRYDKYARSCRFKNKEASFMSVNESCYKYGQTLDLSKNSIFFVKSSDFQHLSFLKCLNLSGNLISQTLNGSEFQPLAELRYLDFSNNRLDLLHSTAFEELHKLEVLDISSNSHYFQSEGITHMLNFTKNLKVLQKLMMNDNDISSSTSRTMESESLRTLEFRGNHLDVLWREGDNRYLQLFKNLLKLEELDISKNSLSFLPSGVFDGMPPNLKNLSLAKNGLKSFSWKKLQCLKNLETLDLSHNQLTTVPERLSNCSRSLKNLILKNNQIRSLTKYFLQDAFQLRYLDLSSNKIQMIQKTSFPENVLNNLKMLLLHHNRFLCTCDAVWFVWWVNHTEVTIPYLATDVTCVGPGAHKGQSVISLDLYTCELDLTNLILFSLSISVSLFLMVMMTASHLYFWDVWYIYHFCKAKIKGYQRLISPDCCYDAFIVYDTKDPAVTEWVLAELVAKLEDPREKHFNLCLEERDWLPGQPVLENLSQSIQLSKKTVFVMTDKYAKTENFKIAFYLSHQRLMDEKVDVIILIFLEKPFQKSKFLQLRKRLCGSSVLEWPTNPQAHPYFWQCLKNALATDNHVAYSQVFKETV
Format: cell-based
Description: • 1. HEK-Blue™ hTLR7 cell (Invivogen) • 2. Resiquimod (R848, Invivogen) • 3. Alkaline phosphatase detection medium (Quanti-Blue Detection, Invivogen) • 4. Blasticidin (Invivogen) • 5. Zeocin (Invivogen) • 6. Normocin (Invivogen) • 7. DMEM/HIGH Glucose (GE Healthcare) • 8. Fetal bovine serum (FBS, Gibco) • 9. Phosphate-buffered saline (Shanghai BasalMedia Technologies Co., Ltd.) • 10. Sterile purified water (made in-house by Shanghai Hengrui) • 11. 15 mL centrifuge tube (Corning) • 12. %-well formulating plate (Corning) • 13. 96-well flat-bottom cell culture plate (Corning) • 14. Constant-temperature cell incubator (Thermo scientific) • 15. Constant-temperature incubator (Shanghai Yiheng Scientific Instruments Co., Ltd.) • 16. PHERAstar FS microplate reader (BMG Labtech)
HEK-Blue™ hTLR7 cells were purchased from Invivogen. These cells are HEK293 cells transfected with the human Toll-like receptor 7 (TLR7) gene and the secreted alkaline phosphatase reporter gene (SEAP). The alkaline phosphatase reporter gene (SEAP) is under the regulation of the IFN—P minimal promoter comprising 5 NF-kB and AP-1 binding sites. Upon activation of TLR7 with an agonist, SEAP secretion is induced via downstream NF-kB and AP-1. After addition of an antagonist compound, the pathway described above is inhibited, and SEAP secretion is reduced. The activity of the compounds for the TLR7 pathway was evaluated by measuring OD620 through the SEAP substrate.
20 mM test compounds dissolved in 100% DMSO were serially diluted with 100% DMSO to 2000, 400, 80, 16, 3.2, 0.64, 0.128, 0.0256 μM, with blank wells containing 100% DMSO. The compounds and 100% DMSO were then 20-fold diluted in DMEM/HIGH glucose media containing 10% inactivated FBS (complete media, the same applies below). Resiquimod was diluted to 10 μM with sterile water. The 10 μM resiquimod dilution in sterile water was added to a 96-well cell culture plate at 20 μL/well. The above compounds diluted in complete media and 100% DMSO were then added at 20 μL/well to wells containing resiquimod, 20 μL of sterile water and 20 μL of 100% DMSO diluted in the complete medium were added to negative control wells.
HEK-Blue™ hTLR7 cells were cultured in a DMEM/HIGH glucose medium containing 10% inactivated FBS, 100 μg/mL Normocin, 10 μg/mL blasticidin, and 100 μg/mL Zeocin. Cells that were in a good state of growth and had grown to 70%-80% were collected. The growth medium was discarded, 5-10 mL of PBS pre-heated at 37° C. was added to wash the cells once, and 2-5 mL of pre-heated PBS was added. The cells were cultured at 37° C. for 1-2 min, dispersed by pipetting, transferred to a 15 mL centrifuge tube, and counted, and the cell density was adjusted to 4.8-10′/mL with the complete medium. After density adjustment, 160 μL of the resulting cell suspension was added to the above 96-well cell culture plate to a final number of cells per well of 76,500/well. The final concentration of resiquimod was 1 μM, and the final concentrations of the test compounds were 10,000, 2000, 400, 80, 16, 3.2, 0.64, and 0.128 nM. The cells were cultured in a 37° C., 5% CO2 incubator for 20 h. Then 20 μL of the supernatant was added to 180 μL of the prepared alkaline phosphatase detection medium and incubated in the dark in a constant-temperature incubator at 37° C. for 120 min. Then the OD620 absorbance readings were taken on a microplate reader. The inhibition rate was calculated using the following formula: […]
Inhibition curves were plotted using Graphpad Prism software according to the concentrations of the compounds and the corresponding inhibition rates, and the concentrations of the compounds at which the inhibition rate reached 50%, i.e., IC50 values, were calculated and are shown in Table 1.

Row | IC50 [nM] | Compound
1 | 5.7 | Cc1cc(-c2[nH]c3cc4c(nc3c2C(C)C)CN(Cc2ccc(N3CCNCC3)cn2)CC4)cc(C)n1 [Example 5, 2-(2,6-Dimethylpyridin-4-yl)-3-isopropyl-6-((5-(piperazin-1-yl)pyridin-2-yl)methyl)-5,6,7,8-tetrahydro-1H-pyrrolo[3,2-b][1,7]naphthyridine]
2 | 7.7 | Cc1cc(-c2[nH]c3cc4c(nc3c2C(C)C)CNCC4)cc(C)n1 [Example 1, 2-(2,6-Dimethylpyridin-4-yl)-3-isopropyl-5,6,7,8-tetrahydro-1H-pyrrolo[3,2-b][1,7]naphthyridine]
3 | 6.8 | Cc1cc(-c2[nH]c3cc4c(nc3c2C(C)C)CN(CCc2ccc(N3CCNCC3)nc2)CC4)cc(C)n1 [Example 4, 2-(2,6-Dimethylpyridin-4-yl)-3-isopropyl-6-(2-(6-(piperazin-4-yl)pyridin-3-yl)ethyl)-5,6,7,8-tetrahydro-1H-pyrrolo[3,2-b][1,7]naphthyridine]
4 | 18.2 | Cc1cc(-c2[nH]c3cc4c(nc3c2C(C)C)CN(CC(N)=O)CC4)cc(C)n1 [Example 8, 2-(2-(2,6-Dimethylpyridin-4-yl)-3-isopropyl-1,5,7,8-tetrahydro-6H-pyrrolo[3,2-b][1,7]naphthyridin-6-yl)acetamide]
5 | 7.1 | Cc1cc(-c2[nH]c3cc4c(nc3c2C(C)C)CN(CC23CCC(N)(CC2)CC3)CC4)cc(C)n1 [Example 7, 4-((2-(2,6-Dimethylpyridin-4-yl)-3-isopropyl-1,5,7,8-tetrahydro-6H-pyrrolo[3,2-b][1,7]naphthyridin-6-yl)methyl)bicyclo[2.2.2]octyl-1-amine]
6 | 29.9 | Cc1cc(-c2[nH]c3cc4c(nc3c2C(C)C)CN(C(C)C)CC4)cc(C)n1 [Example 2, 2-(2,6-Dimethylpyridin-4-yl)-3,6-diisopropyl-5,6,7,8-tetrahydro-1H-pyrrolo[3,2-b][1,7]naphthyridine]
7 | 4.9 | Cc1c(-c2[nH]c3cc4c(nc3c2C(C)C)CNCC4)cn2ncnc2c1C [Example 9, 2-(7,8-Dimethyl-[1,2,4]triazolo[1,5-a]pyridin-6-yl)-3-isopropyl-5,6,7,8-tetrahydro-1H-pyrrolo[3,2-b][1,7]naphthyridine]
8 | 21.5 | Cc1c(-c2[nH]c3cc4c(nc3c2C(C)C)CN(CC(N)=O)CC4)cn2ncnc2c1C [Example 10, 2-(2-(7,8-Dimethyl-[1,2,4]triazolo[1,5-a]pyridin-6-yl)-3-isopropyl-1,5,7,8-tetrahydro-6H-pyrrolo[3,2-b][1,7]naphthyridin-6-yl)acetamide]
